Assay results: patent US9706777B2

Tested on: Alternaria solani
Assay: Alternaria test (tomatoes)/preventive
Conditions: 100 ppm a.i.; preventive spray on young tomato plants; evaluated 3 days after inoculation; 0% = untreated control, 100% = no disease
Procedure: The degree of efficacy, expressed in % is denoted.
In this case, the efficacy which was actually observed must be greater than the value for the expected efficacy (E) calculated from the abovementioned formula.
After the spray coating has dried on, the plants are inoculated with an aqueous spore suspension of Alternaria solani. The plants are then placed in an incubation cabinet at approximately 20° C. and a relative atmospheric humidity of 100%.
The test is evaluated 3 days after the inoculation.

## C#CCOc1ccc(CCNC(=O)C(OCC#C)c2ccc(Cl)cc2)cc1OC (stereo not shown) [F206 mandipropamid, mandipropamid]
  Efficacy in % found: 0%
